Experimental findings from article PMC9569529, “Safe and Efficient Sigma1 Ligand: A Potential Drug Candidate for Multiple Sclerosis” (International Journal of Molecular Sciences, 2022) are described below.

Some results are limits rather than exact numbers.

Series [1] deals with SH-SY5Y. The series is described as follows: Cytotoxicity in human neuroblastoma cell line (MTT/MTS). It counts as cell-based. The conditions noted are these: 72 h. How it is done: Toxicity analysis was performed in the human neuroblastoma cell line (SH-SY5Y), which was cultured in Dulbecco’s Modified Eagle Medium (DMEM, Gibco) supplemented with 2 mM L-glutamine (Invitrogen, Thermo Fisher Scientific Inc. Waltham, MA, USA), […] streptomycin (Invitrogen), 100 IU/mL penicillin (Invitrogen), 1 mM non-essential amino acids (Invitrogen) and 10% (v/v) heat inactivated fetal bovine serum (Sigma Aldrich, Burlington, MA, USA) and grown at 37 °C in a humidified incubator with 5% CO2. […] After 72 h of incubation, cell growth was estimated by the colorimetric MTT assay (CellTiter 96® aqueous one solution cell proliferation assay-MTS, Promega, Madison, WI, USA) according to the manufacturer’s protocol. Absorbance was read at 490 nm and results were expressed as % from the control condition considered as 100%.

The subject of series [2] is S1R–BiP complex. The series is described as follows: S1R-BiP dissociation assay in CHO cells (co-IP, ELISA). The class given is cell-based. How it is done: The activity of compound 7i was evaluated in regard to its ability to dissociate the S1R–BiP complex. The S1R–BiP dissociation assay was performed by Amylgen (Montferrier-sur-Lez, France) as described in [13, 79]. Briefly, CHO cells were treated with test compounds for 30 min (37 °C). Crosslinking was performed with dithiobis succinimidyl propionate (DSP; Thermoscientific, Waltham, MA, USA). Lysis was performed after incubation for 15 min on ice. After centrifugation, supernatants were incubated overnight (4 °C) with the S1R antibody (Abcam, Cambridge, UK). Lysates were incubated with Sepharose Protein-A (Invitrogen). After the first centrifugation, the pellet was resuspended in radioimmunoprecipitation assay (RIPA) buffer. After a second centrifugation, the pellet was resuspended in 2× sample buffer/bMCE buffer. After the third centrifugation, supernatants were analyzed for BiP immunoreactivity (SEC343Mu ELISA, USCNK Life Sciences, Wuhan, China).
For orientation: In an ELISA, binding on a coated surface is turned into a signal by an enzyme label.

In series [3] the test system is human peripheral blood mononuclear cells (hPBMCs). The series is described as follows: Immunotoxicity, immunophenotyping by flow cytometry. The note with it: 10 µM, 48 h. It counts as cell-based. The method, then:
Immunotoxicity analysis was performed by Immune Insight CRO (Lille, France) on human peripheral blood mononuclear cells (hPBMCs) from six individual healthy donors. hPBMCs were either non-stimulated (basal) or stimulated using E. coli lipopolysaccharide (LPS, Sigma Aldrich, St. Louis, MO, USA) at 100 ng/mL. hPBMCs were activated with plate-bound anti-CD3 (10 ng/mL) monoclonal antibody (mAb) and incubated at 37 °C for 2 h before the culture and soluble anti-CD28 (10 ng/mL) mAb (Clinisciences, Montrouge, France) were added. Compound 7i was tested at 10 µM. The quality of hPBMC activation was controlled using cytometric analysis based on CD25 staining and proliferation assays based on ^3H-thymidine incorporation. Immune cell subpopulations were immunophenotyped among hPBMCs by flow cytometry on an Attune NxT (Thermofisher Scientific Inc. Waltham, MA, USA). Analyses were performed at 48 h post treatment. The expression of B, CD4, CD8, Th17 and Treg lymphocyte surface antigens was tested using monoclonal mouse anti-human Ab (Miltenyi Biotec SAS, Paris, France) (Table 9). […]

In series [4] the test system is S. typhimurium TA100. The conditions noted are these: 7i 40 µg/plate.
Series [5] has as its system T1, P-gp.
T1 construct: in the Caco-2 cell line with and without verapamil; host or cells: Caco-2
In words: P-gp substrate assessment, Caco-2 with and without verapamil. It counts as in vitro ADME. The conditions noted are these: human. The method, then: (§1) The compound was classically evaluated at 10 µM for all the ADME analyses. Bidirectional permeability (apical A to basolateral B pH 6.5/7.4 and basolateral B to apical A pH 7.4/6.5) was assessed in the epithelial colorectal adenocarcinoma cell line (Caco-2 cell line). Results were expressed as × 10^−6cm/s (Papp) and as % recovery. Efflux ratio, i.e., Papp(B-A)/Papp(A-B), was calculated. Plasma protein binding was analyzed by HPLC-MS/MS after 4-h incubation at 37 °C, as described by Banker et al.. Concentration was evaluated by LC/MS-MS. CYP inhibition was performed in human liver microsomes as described in [61]. Analysis of the respective metabolites. was performed by HPLC-MS/MS. Transporter inhibition analysis was also performed in overexpressing cell lines. Respective metabolites for each specific transporter substrate were analyzed by fluorometry or scintillation counting and % inhibition of control values were calculated. P-glycoprotein transporter substrate assessment was performed by bidirectional permeability analysis (apical A to basolateral B pH 7.4/7.4 and basolateral B to apical A pH 7.4/7.4) in the Caco-2 cell line with and without verapamil, as described in [59]. Results were expressed as ×10^−6 cm/s (Papp) and as % recovery. The efflux ratio, i.e., Papp(B-A)/Papp(A-B), was calculated. CYP450 induction characterization was performed on human hepatocytes. The mRNA levels of 7 different CYPs were analyzed by qPCR, as described in [72]. The compound was evaluated at 1, 10 and 100 µM. Fold-induction values were determined and compared to cut-off values, as defined for each CYP isozyme in each hepatocyte lot.

Series [6] deals with T2, P-gp (Homo sapiens, UniProt P08183).
T2 construct: in the Caco-2 cell line with and without verapamil; host or cells: Caco-2
The series is described as above. The class given is in vitro ADME. How it is done: as §1

Series [7] concerns S. typhimurium TA98. In words: Ames test. The conditions noted are these: 7i 40 µg/plate. (In general: The Ames test detects mutagens through reverse mutation in bacteria.)
Series [8] concerns experimental autoimmune encephalomyelitis (EAE). In words: Relapsing EAE (PLP 139-151), curative protocol. It counts as in vivo, female SJL/J mice.
Where [9] appears, read: +S9, positive control 2-anthramine 0.5.

T2 sequence (P08183 whole entry): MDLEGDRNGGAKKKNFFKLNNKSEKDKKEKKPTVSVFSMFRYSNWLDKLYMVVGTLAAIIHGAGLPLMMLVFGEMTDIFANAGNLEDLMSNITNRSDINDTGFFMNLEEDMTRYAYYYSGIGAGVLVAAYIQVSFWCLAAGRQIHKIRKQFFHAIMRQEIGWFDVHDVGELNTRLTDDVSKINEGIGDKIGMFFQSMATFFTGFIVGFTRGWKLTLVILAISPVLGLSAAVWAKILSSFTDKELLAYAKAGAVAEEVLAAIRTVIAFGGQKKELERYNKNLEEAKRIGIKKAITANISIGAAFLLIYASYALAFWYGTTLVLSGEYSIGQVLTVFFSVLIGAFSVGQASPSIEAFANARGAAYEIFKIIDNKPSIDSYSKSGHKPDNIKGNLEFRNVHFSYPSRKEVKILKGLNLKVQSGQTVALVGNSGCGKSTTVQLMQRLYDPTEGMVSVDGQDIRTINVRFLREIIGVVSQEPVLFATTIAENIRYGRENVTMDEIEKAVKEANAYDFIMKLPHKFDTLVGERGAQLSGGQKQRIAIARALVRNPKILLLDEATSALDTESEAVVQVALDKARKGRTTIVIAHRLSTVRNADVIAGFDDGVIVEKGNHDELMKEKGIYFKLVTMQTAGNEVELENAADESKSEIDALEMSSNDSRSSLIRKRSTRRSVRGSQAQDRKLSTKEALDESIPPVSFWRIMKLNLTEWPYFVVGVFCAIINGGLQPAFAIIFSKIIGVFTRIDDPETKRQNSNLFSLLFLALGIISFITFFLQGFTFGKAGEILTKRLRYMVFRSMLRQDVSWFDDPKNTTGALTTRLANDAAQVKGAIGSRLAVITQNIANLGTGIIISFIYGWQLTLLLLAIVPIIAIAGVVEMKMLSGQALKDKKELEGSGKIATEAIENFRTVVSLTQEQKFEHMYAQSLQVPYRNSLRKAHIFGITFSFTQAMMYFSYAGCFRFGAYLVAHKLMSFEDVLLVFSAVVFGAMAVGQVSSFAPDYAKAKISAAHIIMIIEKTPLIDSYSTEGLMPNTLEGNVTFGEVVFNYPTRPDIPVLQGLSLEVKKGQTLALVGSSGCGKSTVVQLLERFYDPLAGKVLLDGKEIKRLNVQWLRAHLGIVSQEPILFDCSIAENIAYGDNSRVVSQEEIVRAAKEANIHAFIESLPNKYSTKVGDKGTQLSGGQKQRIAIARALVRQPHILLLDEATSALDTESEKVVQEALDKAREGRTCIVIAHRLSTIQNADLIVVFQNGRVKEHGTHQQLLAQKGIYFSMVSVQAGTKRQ

Take `O=C(NCCCNCc1ccccc1)c1ccc(Cl)cc1` [compound 7i-deMe]: testing at 100 µM in series [1] gave an inhibition of 77%.

With `CN(CCCNC(=O)c1ccc(Cl)cc1)Cc1ccccc1` [compound 7i], the “effect on S1R–BiP association” value in series [2] (1 and 10 µM, 30-min incubation) was “significantly causes a dose-dependent dissociation”. Besides, in series [2] (S1R–BiP dissociation blocked by NE-100), the S1R functional activity result was “agonist capacity”. Also, the “effect on S1R–BiP dissociation in presence of NE-100” value in series [2] (co-treatment with NE-100 (10 µM)) is recorded as “blocked”. Besides, in series [2] (co-treatment with PRE-084 (10 µM)), the “S1R antagonist capacity (co-treatment with PRE-084)” value was “absence of antagonist capacity”. The “effect on percentage of B, Th17, CD4 and CD8 T lymphocyte subpopulations and regulatory T cells” value in series [3] (basal non-stimulating conditions) is “no effect”. Also, the “toxicity on immune subpopulations” value in series [3] (stimulating or not stimulating conditions) is “no toxicity effect”. For the same compound, the “Ames TA100 +S9 (Mean revertants/well per title)” value in series [4] (setting [9]) was 0.9. Moreover, in series [4] (−S9, positive control MNNG 0.25), the “Ames TA100 −S9 (Mean revertants/well per title)” value is reported as 0.9. The Papp A→B at 10 µM is 28 ×10⁻⁶ cm/s in series [5] (pH 7.4, Caco-2, 10 µM, with verapamil, read-out: P-gp substrate, Verapamil, A/B pH7.4/7.4) and 45.8 ×10⁻⁶ cm/s in series [6] (human, pH 7.4, Caco-2, 10 µM, PBS (no verapamil), read-out: P-gp substrate, PBS, A/B pH7.4/7.4). Moreover, the Papp B→A at 10 µM in series [5] (pH 7.4, Caco-2, 10 µM, with verapamil, read-out: P-gp substrate, Verapamil, B/A pH7.4/7.4) stood at 16.9 ×10⁻⁶ cm/s; in series [6] (human, pH 7.4, Caco-2, 10 µM, PBS (no verapamil), read-out: P-gp substrate, PBS, B/A pH7.4/7.4) it was 11.7 ×10⁻⁶ cm/s. Moreover, the efflux ratio at 10 µM in series [5] (Caco-2, pH 7.4/7.4, with verapamil, read-out: P-gp substrate, Verapamil, e-ratio) amounted to 0.6; in series [6] (human, Caco-2, pH 7.4/7.4, PBS (no verapamil), read-out: P-gp substrate, PBS, e-ratio), 0.3. In addition, in series [6] (comparison of efflux ratios with/without verapamil), the “P-gp substrate (conclusion)” value is given as “not a substrate”. Further, in series [7] (setting [9]), the “Ames TA98 +S9 (Mean revertants/well per title)” value is reported as 1.1. Besides, the “Ames TA98 −S9 (Mean revertants/well per title)” value in series [7] (−S9, positive control 2-nitrofluorene 0.5) is listed as 1.1. Moreover, the EAE global evolution entry in series [8] (0.5 mg/kg i.p. daily for 15 days from score 2, followed 80 days) is reported as “significantly reduced”. In addition, the EAE course entry in series [8] (0.5 mg/kg p.o. daily for 15 days from score 2) is listed as “significant decrease”. Moreover, in series [8] (BD-1047 10 mg/kg i.p. 20 min before 7i), the “effect on EAE development after BD-1047 pretreatment” value is reported as “blocked”. The second relapse entry in series [8] (i.p., 0.5 and 1 mg/kg daily for 15 days) is “No second relapse”. For the same compound, the “effect on clinical score during treatment (first relapse)” value in series [8] (i.p., 0.5 and 1 mg/kg, more pronounced at 1 mg/kg) is “visible from the first days of treatment”. The “maximal clinical grade during the entire disease course” value in series [8] (orally treated animals) is listed as at most 2 grade. The “clinical grade reached during the 15 days of administration” value in series [8] (p.o. 0.5 mg/kg) worked out at 1 grade. In addition, the “rebound effect after end of treatment” value in series [8] (p.o., as in i.p. administration) is given as “No rebound effect”.
